Data published in US8420675B2, “Aminotetrahydroindazoloacetic acids” (Hoffmann-La Roche Inc., priority 2008, dated 2013).

Target: T1, human CRTH2 (Homo sapiens, UniProt Q9Y5Y4)
T1 construct: expressed in transfected cells
T1 sequence (Q9Y5Y4 1-395): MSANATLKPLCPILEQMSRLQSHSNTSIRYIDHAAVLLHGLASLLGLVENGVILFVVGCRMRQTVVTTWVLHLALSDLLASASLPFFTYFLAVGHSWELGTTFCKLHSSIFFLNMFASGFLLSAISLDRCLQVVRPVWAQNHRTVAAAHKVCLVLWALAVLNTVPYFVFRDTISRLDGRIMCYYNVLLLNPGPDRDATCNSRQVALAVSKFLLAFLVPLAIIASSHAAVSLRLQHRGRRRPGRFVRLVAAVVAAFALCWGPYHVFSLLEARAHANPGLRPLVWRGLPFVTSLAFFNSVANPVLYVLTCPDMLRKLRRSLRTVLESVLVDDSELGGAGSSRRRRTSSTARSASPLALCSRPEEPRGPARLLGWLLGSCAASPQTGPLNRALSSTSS
Test: Human CRTH2 Receptor Binding Assay (whole cell, [3H]ramatroban competition)
Details: CHO-K1 cells expressing human CRTH2 and G-alpha16; 20 nM [3H]ramatroban; 1 hour, room temperature
Method in brief: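 CHO-K1 cells stably co-expressing human CRTH2 and G-alpha16, 1.5×10^5 per reaction, incubated 1 hour at room temperature with 20 nM [3H]ramatroban in PBS containing 10 mM MgCl2 and 0.06% BSA. Non-specific binding defined with 10 μM 15(R)-15-methyl PGD2. IC50 from 7 concentrations by 4-parameter logistic fit of specific binding inhibition.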

IC50 [µM]	SMILES
0.369	COc1ccc(-c2cccc(S(=O)(=O)NC3CCCc4c3cnn4CC(=O)O)c2)cc1 (centres unmarked) [Example 10-5a, [4-(4′-Methoxy-biphenyl-3-sulfonylamino)-4,5,6,7-tetrahydro-indazol-1-yl]-acetic acid]
0.207	O=C(O)Cn1ncc2c1CCCC2NS(=O)(=O)c1ccc(-c2ccc(Cl)cc2)cc1 (centres unmarked) [Example 10-6a, [4-(4′-Chloro-biphenyl-4-sulfonylamino)-4,5,6,7-tetrahydro-indazol-1-yl]-acetic acid]
0.3	O=C(O)Cn1ncc2c1CCCC2NS(=O)(=O)c1ccc(-c2ccc(F)cc2)cc1 (centres unmarked) [Example 10-7a, [4-(4′-Fluoro-biphenyl-4-sulfonylamino)-4,5,6,7-tetrahydro-indazol-1-yl]-acetic acid]
0.412	O=C(O)Cn1ncc2c1CCCC2NS(=O)(=O)c1ccc(-c2ccccc2)c(F)c1 (centres unmarked) [Example 10-8a, [4-(2-Fluoro-biphenyl-4-sulfonylamino)-4,5,6,7-tetrahydro-indazol-1-yl]-acetic acid]
0.0716	O=C(O)Cn1ncc2c1CCCC2NS(=O)(=O)c1ccc(-c2ccccc2)c(C(F)(F)F)c1 (centres unmarked) [Example 10-9a, [4-(2-Trifluoromethyl-biphenyl-4-sulfonylamino)-4,5,6,7-tetrahydro-indazol-1-yl]-acetic acid]
0.37	COc1cccc(-c2ccc(S(=O)(=O)NC3CCCc4c3cnn4CC(=O)O)cc2)c1 (centres unmarked) [Example 10-10a, [4-(3′-Methoxy-biphenyl-4-sulfonylamino)-4,5,6,7-tetrahydro-indazol-1-yl]-acetic acid]
0.321	N#Cc1cccc(-c2ccc(S(=O)(=O)NC3CCCc4c3cnn4CC(=O)O)cc2)c1 (centres unmarked) [Example 10-11a, [4-(3′-Cyano-biphenyl-4-sulfonylamino)-4,5,6,7-tetrahydro-indazol-1-yl]-acetic acid]
0.311	O=C(O)Cn1ncc2c1CCCC2NS(=O)(=O)c1cccc(-c2ccccc2Cl)c1 (centres unmarked) [Example 10-12a, [4-(2′-Chloro-biphenyl-3-sulfonylamino)-4,5,6,7-tetrahydro-indazol-1-yl]-acetic acid]
0.153	O=C(O)Cn1ncc2c1CCC[C@H]2NS(=O)(=O)c1ccc(-c2cccc(Cl)c2)cc1 [Example 10-13a, [(R)-4-(3′-Chloro-biphenyl-4-sulfonylamino)-4,5,6,7-tetrahydro-indazol-1-yl]-acetic acid]
0.0581	O=C(O)Cn1ncc2c1CCCC2NS(=O)(=O)c1ccc(-c2cccc(OC(F)(F)F)c2)cc1 (centres unmarked) [Example 10-14a, [4-(3′-Trifluoromethoxy-biphenyl-4-sulfonylamino)-4,5,6,7-tetrahydro-indazol-1-yl]-acetic acid]
0.466	O=C(O)Cn1ncc2c1CCCC2NS(=O)(=O)c1ccc(-c2ccc(F)c(Cl)c2)cc1 (centres unmarked) [Example 10-15a, [4-(3′-Chloro-4′-fluoro-biphenyl-4-sulfonylamino)-4,5,6,7-tetrahydro-indazol-1-yl]-acetic acid]
0.0661	O=C(O)Cn1ncc2c1CCCC2NS(=O)(=O)c1cc(-c2ccccc2)cc(C(F)(F)F)c1 (centres unmarked) [Example 10-16a, [4-(5-Trifluoromethyl-biphenyl-3-sulfonylamino)-4,5,6,7-tetrahydro-indazol-1-yl]-acetic acid]
0.262	O=C(O)Cn1ncc2c1CCCC2NS(=O)(=O)c1ccc(-c2ccccc2C(F)(F)F)cc1 (centres unmarked) [Example 10-17a, [4-(2′-Trifluoromethyl-biphenyl-4-sulfonylamino)-4,5,6,7-tetrahydro-indazol-1-yl]-acetic acid]
0.188	Cc1cc(C)cc(-c2ccc(S(=O)(=O)NC3CCCc4c3cnn4CC(=O)O)cc2)c1 (centres unmarked) [Example 10-18a, [4-(3′,5′-Dimethyl-biphenyl-4-sulfonylamino)-4,5,6,7-tetrahydro-indazol-1-yl]-acetic acid]
0.267	O=C(O)Cn1ncc2c1CCCC2NS(=O)(=O)c1ccc(-c2cccc(O)c2)cc1 (centres unmarked) [Example 10-19a, [4-(3′-Hydroxy-biphenyl-4-sulfonylamino)-4,5,6,7-tetrahydro-indazol-1-yl]-acetic acid]
0.272	CCOc1cccc(-c2ccc(S(=O)(=O)NC3CCCc4c3cnn4CC(=O)O)cc2)c1 (centres unmarked) [Example 10-20a, [4-(3′-Ethoxy-biphenyl-4-sulfonylamino)-4,5,6,7-tetrahydro-indazol-1-yl]-acetic acid]

IC50 [µM]	SMILES
0.12	CC(C)Oc1cccc(-c2ccc(S(=O)(=O)NC3CCCc4c3cnn4CC(=O)O)cc2)c1 (centres unmarked) [Example 10-21a, [4-(3′-Isopropoxy-biphenyl-4-sulfonylamino)-4,5,6,7-tetrahydro-indazol-1-yl]-acetic acid]
0.152	CC(=O)c1cccc(-c2ccc(S(=O)(=O)NC3CCCc4c3cnn4CC(=O)O)cc2)c1 (centres unmarked) [Example 10-22a, [4-(3′-Acetyl-biphenyl-4-sulfonylamino)-4,5,6,7-tetrahydro-indazol-1-yl]-acetic acid]
0.238	O=C(O)Cn1ncc2c1CCCC2NS(=O)(=O)c1ccc(-c2cccc([N+](=O)[O-])c2)cc1 (centres unmarked) [Example 10-23a, [4-(3′-Nitro-biphenyl-4-sulfonylamino)-4,5,6,7-tetrahydro-indazol-1-yl]-acetic acid]
0.0975	O=C(O)Cn1ncc2c1CCCC2NS(=O)(=O)c1ccc(-c2cc(C(F)(F)F)cc(C(F)(F)F)c2)cc1 (centres unmarked) [Example 10-24a, [4-(3′,5′-Bis-trifluoromethyl-biphenyl-4-sulfonylamino)-4,5,6,7-tetrahydro-indazol-1-yl]-acetic acid]
0.0131	O=C(O)Cn1ncc2c1CCC[C@H]2NS(=O)(=O)c1ccc(-c2cccc(C(F)(F)F)c2)cc1 [Example 10-25a, [(R)-4-(3′-Trifluoromethyl-biphenyl-4-sulfonylamino)-4,5,6,7-tetrahydro-indazol-1-yl]-acetic acid]
0.0051	CC(C)c1cccc(-c2ccc(S(=O)(=O)N[C@@H]3CCCc4c3cnn4CC(=O)O)cc2)c1 [Example 10-27a, [(R)-4-(3′-Isopropyl-biphenyl-4-sulfonylamino)-4,5,6,7-tetrahydro-indazol-1-yl]-acetic acid]
0.0066	CS(=O)(=O)c1cccc(-c2ccc(S(=O)(=O)N[C@@H]3CCCc4c3cnn4CC(=O)O)cc2)c1 [Example 10-28a, [(R)-4-(3′-Methanesulfonyl-biphenyl-4-sulfonylamino)-4,5,6,7-tetrahydro-indazol-1-yl]-acetic acid]
0.0275	C[S+]([O-])c1cccc(-c2ccc(S(=O)(=O)N[C@@H]3CCCc4c3cnn4CC(=O)O)cc2)c1 (stereo partly drawn) [Example 10-29a, [(R)-4-(3′-Methanesulfinyl-biphenyl-4-sulfonylamino)-4,5,6,7-tetrahydro-indazol-1-yl]-acetic acid]
0.0056	O=C(O)CCn1ncc2c1CCC[C@H]2NS(=O)(=O)c1ccc(-c2cccc(C(F)(F)F)c2)cc1 [Example 10-31a, 3-[(R)-4-(3′-Trifluoromethyl-biphenyl-4-sulfonylamino)-4,5,6,7-tetrahydro-indazol-1-yl]-propionic acid]
0.0073	CN([C@@H]1CCCc2c1cnn2CC(=O)O)S(=O)(=O)c1ccc(-c2cccc(C(F)(F)F)c2)cc1 [Example 11-1a, {(R)-4-[Methyl-(3′-trifluoromethyl-biphenyl-4-sulfonyl)-amino]-4,5,6,7-tetrahydro-indazol-1-yl}-acetic acid]
0.0807	CN([C@@H]1CCCc2c1cnn2CCC(=O)O)S(=O)(=O)c1ccc(-c2cccc(C(F)(F)F)c2)cc1 [Example 11-2a, 3-{(R)-4-[Methyl-(3′-trifluoromethyl-biphenyl-4-sulfonyl)-amino]-4,5,6,7-tetrahydro-indazol-1-yl}-propionic acid]
0.13	CN([C@@H]1CCCc2c1cnn2CC(=O)O)S(=O)(=O)c1cc(-c2ccc(F)cc2)cc(C(F)(F)F)c1 [Example 12-1a, {(R)-4-[(4′-Fluoro-5-trifluoromethyl-biphenyl-3-sulfonyl)-methyl-amino]-4,5,6,7-tetrahydro-indazol-1-yl}-acetic acid]
0.0029	CN([C@@H]1CCCc2c1cnn2CC(=O)O)S(=O)(=O)c1cc(C(F)(F)F)cc(S(=O)(=O)c2ccc(Cl)cc2)c1 [Example 13-1a, ((R)-4-{[3-(4-Chloro-benzenesulfonyl)-5-trifluoromethyl-benzenesulfonyl]-methylamino}-4,5,6,7-tetrahydro-indazol-1-yl)-acetic acid]
0.0027	Cc1ccc(S(=O)(=O)c2cc(C(F)(F)F)cc(S(=O)(=O)N(C)[C@@H]3CCCc4c3cnn4CC(=O)O)c2)cc1 [Example 13-2a, ((R)-4-{Methyl-[3-(toluene-4-sulfonyl)-5-trifluoromethyl-benzenesulfonyl]-amino}-4,5,6,7-tetrahydro-indazol-1-yl)-acetic acid]
0.004	CN([C@@H]1CCCc2c1cnn2CCC(=O)O)S(=O)(=O)c1cc(C(F)(F)F)cc(S(=O)(=O)c2ccc(F)cc2)c1 [Example 13-3a, 3-((R)-4-{[3-(4-Fluoro-benzenesulfonyl)-5-trifluoromethyl-benzenesulfonyl]-methyl-amino}-4,5,6,7-tetrahydro-indazol-1-yl)-propionic acid]

SMILES	IC50 [µM]
C[Si](C)(C)c1cccc(-c2ccc(S(=O)(=O)N[C@@H]3CCCc4c3cnn4CC(=O)O)cc2)c1 [Example 10-26a, [(R)-4-(3′-Trimethylsilanyl-biphenyl-4-sulfonylamino)-4,5,6,7-tetrahydro-indazol-1-yl]-acetic acid]	0.0021
